Usually ED50 stands for the dose at which the effect has come halfway, by size or by number of responders.

Where a name gives a salt, the structure may show the parent alone. Bounds are passed on as bounds.

Results on 13 compounds are retold here after patent publication US3974157A, “1-(Amino-alkyl)-2-aryl-cyclohexane alcohols and esters” (Pennwalt Corporation, priority 1975, dated 1976).

Common to all, as to type: in vivo
Test [1] deals with arrhythmia produced in dogs or cats by ouabain. The test can be described thus: anti-arrhythmic activity: preventing or reversing the arrhythmia produced by ouabain. The note with it: for Arrhythmia Reversal Time: ouabain arrhythmia. Here is the method:
Anti-arrhythmic activity was determined by measuring the effect of the test compound in preventing or reversing the arrhythmia produced in dogs or cats by ouabain. In the test method, the animal was pretreated with 10 mg/kg (i.v.) of the test compound. The animal was then given 15 micrograms/kg of ouabain (i.v.) followed by doses of 10 micrograms/kg of ouabain at 15-minute intervals (the last dose of ouabain could be less than 10 micrograms/kg) until an arrhythmia was produced which lasted for 10 minutes. The animal was then given 5 mg/kg (i.v.) of test compound. If the arrhythmia was not reversed after 3 minutes, 1 mg/kg of xylocaine was given (i.v.) to reverse the arrhythmia. If the arrhythmia was reversed within 3 minutes by the test compound, the period of time during which the test compound effected reversal was measured (Arrythmia Reversal Time).

The nature of test [2]: phenylbenzoquinone (PBQ) writhing method (analgesia in mice, Sigmund et al). The note with it: for ED50: Mus musculus. The procedure:
(§1) Analgesia was assessed in mice utilizing the hot plate method of Eddy and Leimbach, Journal Pharmacology Expt. Therap., 107, 385, 1953, and/or the phenylbenzoquinone writhing method described by Sigmund et al, Proc. Soc. Exptl. Biol. Med., 95, 729, 1957. The hot plate method is based upon the delay in reaction time, following administration of an active analgesic when animals are placed on a heated […] plate maintained at constant temperature. Thus, the numbers of mice showing elevation of response times over control values after administration of various doses of an unknown compound are used to determine the median effective dose (ED50), which is that dose affecting 50% of the animals. The writhing method is based upon inhibition by an analgesic of the response which occurs when the chemical agent phenylbenzoquinone is injected intraperitoneally. This response is characterized by a twisting or stretching of the body and is referred to as writhing. Following administration of an analgesic or unknown compound into mice, the numbers of animals not responding to the phenylbenzoquinone challenge by writhing are determined.
In general terms: An intraperitoneal irritant provokes the stretching counted in writhing tests.

Test [3] can be described thus: hot plate method (analgesia in mice, Eddy and Leimbach). Particulars: Mus musculus. Here is the method: as §1
On the technique in general: Hot-plate and tail-flick tests time the reaction to a heat stimulus.

Test [4] has as its system arrhythmia produced in dogs or cats by ouabain. The test can be described thus: anti-arrhythmic activity: preventing or reversing the arrhythmia produced by ouabain. The note with it: amount compound 4 mg/kg.
Where [5] appears, read: dogs or cats, amount compound 5 mg/kg.
[6] abbreviates: ouabain given i.v. until an arrhythmia lasting 10 minutes, after 10 mg/kg i.v. pretreatment with test compound.
Setting [7] is: po, mice, phenylbenzoquinone writhing, oral route, read-out: Analgesic Tests ED50 PBQ P.O.
Where [8] appears, read: sc, mice, phenylbenzoquinone writhing, subcutaneous route, read-out: Analgesic Tests ED50 PBQ S.C.
Where [9] appears, read: ip, mice, intraperitoneal route, read-out: Analgesic Tests ED50 Hot Plate I.P.
Where [10] appears, read: mice, oral route, read-out: Analgesic Tests ED50 Hot Plate P.O.

Regarding `CC(N)C1(O)CCCCC1c1ccccc1.Cl` (stereo not drawn) [Example XXIII, 1-(1-Aminoethyl)-2-phenylcyclohexanol hydrochloride], the “Arrhythmia Reversal Time” value in test [1] (setting [5]) turned out to be 5 min. The “Amount Ouabain” value in test [1] (setting [6]) amounted to 95 µg/kg. Further, the ED50 in test [2] (setting [7]) was greater than 100 mg/kg; in test [2] (setting [8]) it was greater than 30 mg/kg.
For `COc1ccc(C2CCCCC2(O)C(C)CN(C)C)cc1.Cl` (stereo not drawn) [Example XVII, 1-(2-Dimethylamino-1-methylethyl)-2-(p-methoxyphenyl)-cyclohexanol hydrochloride], in that order: 30 min, 80 µg/kg, greater than 100 mg/kg and greater than 30 mg/kg.
Turning to `CC(CN(C)C)C1(O)CCCCC1c1ccccc1` (stereo not drawn) [Example XI, 1-(2-Dimethylamino-1-methylethyl)-2-phenylcyclohexanol-p-toluenesulfonate], in test [1] (setting [6]), the “Amount Ouabain” value was found to be 88 µg/kg. For the same compound, the values for the ED50 in test [2] (setting [7]), in test [3] (setting [9]) and in test [3] (setting [10]) were 56 mg/kg, 32 mg/kg and 56 mg/kg, respectively. Further, the “Arrhythmia Reversal Time” value in test [4] came out at 5 min.
Consider `CNC(C)C1(O)CCCCC1c1ccccc1.Cl` (stereo not drawn) [XXIV, 1-(1-Methylaminoethyl)-2-phenylcyclohexanol hydrochloride], for which the “prevention of arrhythmia by pretreatment” value in test [1] (dogs or cats, 10 mg/kg pretreatment, then ouabain) is listed as “prevented arrhythmia”. For the same compound, in test [1] (setting [6]), the “Amount Ouabain” value is 140 µg/kg. For the same compound, the ED50 in test [2] (setting [7]) was greater than 100 mg/kg; in test [2] (setting [8]), greater than 30 mg/kg.
For the compound `COc1ccc(C2CCCCC2(OC(C)=O)C(C)CN(C)C)cc1OC.Cl` (stereo not drawn) [XXXIII, 2-(3,4-Dimethoxyphenyl)-1-(2-dimethylamino-1-methylethyl)cyclohexyl acetate hydrochloride], the “Arrhythmia Reversal Time” value in test [1] (setting [5]) turned out to be 30 min. Besides, in test [1] (setting [6]), the “Amount Ouabain” value is 70 µg/kg. Further, the ED50 is greater than 100 mg/kg in test [2] (setting [7]) and greater than 30 mg/kg in test [2] (setting [8]).
For `CCC(=O)OC1(C(C)CN(C)C)CCCCC1c1ccccc1` (single isomer, unassigned) [Example I (a), 1-(2-Dimethylamino-1-methylethyl)-2-phenylcyclohexyl propionate maleate (Major Isomer)], the ED50 in test [2] (setting [7]) is 100 mg/kg; in test [3] (setting [9]), greater than 40 mg/kg; in test [3] (setting [10]), greater than 100 mg/kg.
With `CCOC(=O)C1(c2ccccc2)CCN(C)CC1` [Meperidine, reference compound], the ED50 turned out to be 18 mg/kg in test [2] (setting [7]), 1.7 mg/kg in test [2] (setting [8]), 5.8 mg/kg in test [3] (setting [9]) and 81 mg/kg in test [3] (setting [10]).
Consider `CC(CN1CCCC1)C1(O)CCCCC1c1ccccc1` (stereo not drawn) [Example III, 1-(1-Methyl-2-pyrrolidinoethyl)-2-phenylcyclohexanol], for which the “Arrhythmia Reversal Time” value in test [1] (setting [5]) is 5 min. Moreover, the “Amount Ouabain” value in test [1] (setting [6]) stood at 100 µg/kg. For the same compound, the ED50 in test [2] (setting [7]) is greater than 100 mg/kg; in test [2] (setting [8]), roughly 30 mg/kg.
For the compound `CC(=O)OC1(C(C)CN(C)C)CCCCC1c1ccccc1` (single isomer, unassigned) [Example I (c), 1-(2-Dimethylamino-1-methylethyl)-2-phenylcyclohexyl acetate maleate (Major Isomer)], in test [1] (setting [6]), the “Amount Ouabain” value is 85 µg/kg. In addition, in test [2] (mice, phenylbenzoquinone writhing, oral route), the “Analgesic Tests ED50 PBQ P.O.” value worked out at 20 mg/kg. Further, the “Analgesic Tests ED50 PBQ S.C.” value in test [2] (mice, phenylbenzoquinone writhing, subcutaneous route) is 3.8 mg/kg. In addition, the ED50 in test [3] (setting [9]) stood at 10 mg/kg; in test [3] (setting [10]), 40 mg/kg. Also, in test [4], the “Arrhythmia Reversal Time” value stood at 30 min.
Turning to `CC(=O)OC1(C(C)CN2CCN(c3ccccc3)CC2)CCCCC1c1ccccc1.Cl` (stereo not drawn) [Example XXI, 1-(1-Methyl-2-[4-phenyl-1-piperazinyl]ethyl)-2-phenylcyclohexyl acetate hydrochloride], the ED50 in test [2] (setting [7]) was 5.9 mg/kg; in test [2] (setting [8]), greater than 100 mg/kg.
As for `CN1CC[C@]23c4c5ccc(O)c4O[C@H]2[C@@H](O)C=C[C@H]3[C@H]1C5` [Morphine, reference compound], the ED50 is 2.6 mg/kg in test [2] (po, read-out: Analgesic Tests ED50 PBQ P.O.); 0.5 mg/kg in test [2] (sc, read-out: Analgesic Tests ED50 PBQ S.C.); 1.8 mg/kg in test [3] (ip, read-out: Analgesic Tests ED50 Hot Plate I.P.); 18 mg/kg in test [3] (po, read-out: Analgesic Tests ED50 Hot Plate P.O.).
With `CCN(CC)CC(=O)Nc1c(C)cccc1C` [Lidocaine, reference compound], the “Amount Ouabain” value in test [1] (control (Lidocaine) line) fell in the range of 60 to 130 µg/kg. Moreover, the “Arrhythmia Reversal Time” value in test [1] (dogs or cats, control, amount compound 1-2 mg/kg) fell in the range of 1 to 3 min.
As to `CNCC(C)C1(O)CCCCC1c1ccccc1.Cl` (stereo not drawn) [Example XXVI, 1-(2-Methylamino-1-methylethyl)-2-phenylcyclohexanol hydrochloride], the ED50 in test [2] (setting [7]) is greater than 30 mg/kg; in test [2] (setting [8]), greater than 10 mg/kg.
